Data: EP1762239A1, “Lofexidine for intraspinal administration” (Texcontor Etablissement, priority 2005, dated 2007)
Where “and” joins values, the source holds several entries; their conditions need not be identical. Equal values may be shown once. Where a name gives a salt, the structure may show the parent alone. Marks after values point to notes of the source that are not given here.

Tested on: rat model of post-operative pain
Experiment: Rat model of post-operative pain (plantar incision), tactile allodynia by electronic von Frey
Assay type: in vivo, Wistar rats
Settings: for Tactile Pressure (g) Post-treatment 15min. / Tactile Pressure (g) Post-treatment 30min. / Tactile Pressure (g) Post-treatment 60min. / Tactile Pressure (g) Post-treatment 120 min.: 24 hours after surgery, single readings at 4 points per rat; for Tactile Pressure (g) Post-treatment 15min. Ave. / Tactile Pressure (g) Post-treatment 30min. Ave. / Tactile Pressure (g) Post-treatment 60min. Ave. / Tactile Pressure (g) Post-treatment 120 min. Ave.: average of 4 points; for Tactile Pressure (g) Post-treatment 15min. Mean / Tactile Pressure (g) Post-treatment 30min. Mean / Tactile Pressure (g) Post-treatment 60min. Mean / Tactile Pressure (g) Post-treatment 120 min. Mean: group mean of 5 rats; for Δ Treatment 15min. / Δ Treatment 30min. / Δ Treatment 60min. / Δ Treatment 120 min.: (Post-Treatment) - (Pre-Treatment)
Procedure: Lofexidine at 0.00032 and 0.0032 mg/rat injected intrathecally (ITH) was evaluated for possible analgesic activity in a rat model of post-operative pain which was induced with an incision made on the plantar surface of the hind paw. To measure tactile allodynia, a supertip with a flattened surface connected to Electrovonfrey Aesthethiometer (IITC, USA) was applied slowly and gently onto the plantar surface of the hind paw, where 4 points around the incision were identified. The endpoint is the mean withdrawal threshold values (gm) in response to von Frey filament, serving as a measure of analgesic activity. Percent inhibition was calculated as Δ treatment values (change in threshold pressure caused by treatment) relative to Δ blank values (change in threshold value caused by incision). Lofexidine.HCl was dissolved in 0.9% NaCl and at doses of 0.00032 and 0.0032 mg/rat was administered intrathecally (ITH). The dosing volume was 10 µl/rat. Male Wistar derived rats weighing 270 ± 30 g provided by BioLasco Taiwan (under Charles River Laboratories Technology licensee) were used. Space allocation for animals was 45 x 23 x 15 cm for 6 rats. Animals were housed in APEC^R cages. All animals were maintained in a controlled temperature (22-24°C) and humidity (60%-80%) environment with 12 hours light dark cycles for at least one week in MDS Pharma Services-Taiwan Laboratory prior to use. Free access to standard lab chow (Lab Diet, Rodent Diet, PMI Nutrition International, USA) and tap water was granted. All aspects of this work including housing, experimentation and disposal of animals were performed in general accordance with the Guide for the Care and Use of Laboratory Animals (National Academy Press, Washington, D. C, 1996). Groups of 5 male Wistar rats weighing 270 ± 30 g were used. Prior to surgery, individual animals were acclimatised to the testing environment and baseline responses to Electronic Von Frey Aesthesiometer (2290CE Electrovonfrey®, IITC, USA) with a rigid tip were performed (Pre-Incision). Under pentobarbital (50 mg/kg, 5 ml/kg, i.p.) anesthesia, the left hind paw was aseptically prepared. A 1-cm longitudinal incision was made with a number 11 blade, through the skin and fascia of the plantar aspect of the foot, starting 0.5 cm from the proximal edge of the heel and extending toward the toes. The plantaris muscle was elevated and incised longitudinally, followed by crushing with a mosquito hemostat for 20 seconds. The muscle origin and insertion remained intact After hemostasis with gentle pressure, the skin and fascia were then closed as one layer using 4-0 silk suture. Evaluation for pain was performed at 24 hours postoperatively between 08:00 and 16:00h. Each animal was monitored at 15, 30, 60 and 120 minutes after intrathecal administration of lofexidine.HCl. The rats were placed under inverted plexiglas cages on a wire mesh rack and a brief observation of general behavior post-injection was made. The rigid tip part of the Electronic Von Frey Aesthesiometer was applied perpendicularly from underneath the mesh floor to the four points around the wound surface of the animal with slow upward force against the paw. A positive response to tactile pressure was recorded if the paw was sharply withdrawn; ambulation was considered an ambiguous response, and in such cases, the stimulus was reapplied. Mean values from 4 points for each rat and from 5 rats in each group were calculated. Percent inhibition due to treatment relative to pre-treatment pain response was calculated according to the formula: Tactile Pressure [(Post-Treatment) - (Pre-Treatment)]/[(Pre-Incision) - (Pre-Treatment)] x 100%. Inhibition by 50% or more (≥50%) is considered significant analgesic effect. Unpaired Student's t test is applied for comparison of the % inhibition values between test substance-and vehicle-treated groups. Significance is considered at P<0.05 level

[1] = 0.00032 mg/rat ITH, individual rat
[2] = 0.00032 mg/rat ITH, group, Δ Treatment/Δ Blank x 100%
[3] = 0.00032 mg/rat ITH, group, Δ Blank 30.2
[4] = 0.0032 mg/rat ITH, individual rat
[5] = 0.0032 mg/rat ITH, group, Δ Treatment/Δ Blank x 100%, ≥50% considered significant
[6] = 0.0032 mg/rat ITH, group, Δ Blank 32.9

CC(Oc1c(Cl)cccc1Cl)C1=NCCN1 (centres unmarked) [Lofexidine HCl]
analgesic effect (0.00032 mg/rat ITH): slight analgesic effect | Tactile Pressure (g) Post-treatment 15min. (0.00032 mg/rat ITH): 26.6 g and 26.9 g and 28.6 g and 23.1 g (2×) and 21.6 g and 17.6 g and 23.3 g and 15.5 g and 18.4 g and 21.1 g and 19.3 g and 23.6 g and 20.5 g and 24.6 g and 20.1 g and 17.9 g and 19.2 g and 14.4 g and 20.6 g | Tactile Pressure (g) Post-treatment 30min. (0.00032 mg/rat ITH): 25.9 g and 23.6 g and 32.5 g and 18.6 g and 25.7 g and 28.4 g and 26.0 g and 20.6 g and 22.3 g and 20.4 g and 17.3 g and 24.6 g and 21.6 g and 22.5 g and 24.4 g and 24.3 g and 20.0 g and 19.4 g and 18.2 g and 19.2 g | Tactile Pressure (g) Post-treatment 60min. (0.00032 mg/rat ITH): 23.3 g and 27.3 g and 23.6 g and 26.6 g and 22.9 g and 19.7 g (2×) and 24.4 g and 19.2 g and 19.9 g and 20.3 g and 22.6 g and 18.4 g and 25.1 g and 21.2 g and 22.0 g and 16.2 g and 21.1 g and 20.5 g and 21.6 g | Tactile Pressure (g) Post-treatment 120 min. (0.00032 mg/rat ITH): 20.6 g (3×) and 21.0 g (2×) and 17.2 g and 19.9 g (2×) and 24.3 g and 21.2 g and 18.9 g and 21.6 g and 22.0 g and 18.0 g and 20.3 g and 22.4 g (2×) and 23.9 g and 18.6 g and 16.8 g | Tactile Pressure (g) Post-treatment 15min. Ave. [1]: 26.3 g and 21.4 g and 18.6 g and 22.2 g and 18.0 g | Tactile Pressure (g) Post-treatment 30min. Ave. [1]: 25.2 g (2×) and 21.2 g and 23.2 g and 19.2 g | Tactile Pressure (g) Post-treatment 60min. Ave. [1]: 25.2 g and 21.6 g and 20.3 g and 22.0 g and 19.9 g | Tactile Pressure (g) Post-treatment 120 min. Ave. [1]: 19.7 g and 21.4 g and 21.2 g (2×) and 19.4 g | Tactile Pressure (g) Post-treatment 15min. Mean (0.00032 mg/rat ITH): 21.3 g | Tactile Pressure (g) Post-treatment 30min. Mean (0.00032 mg/rat ITH): 22.8* g | Tactile Pressure (g) Post-treatment 60min. Mean (0.00032 mg/rat ITH): 21.8 g | Tactile Pressure (g) Post-treatment 120 min. Mean (0.00032 mg/rat ITH): 20.6 g | %Inh 15min. [2]: 2.6% | %Inh 30min. [2]: 7.6% | %Inh 60min. [2]: 4.3% | %Inh 120 min. [2]: 0.3% | Δ Treatment 15min. [3]: 0.8 g | Δ Treatment 30min. [3]: 2.3 g | Δ Treatment 60min. [3]: 1.3 g | Δ Treatment 120 min. [3]: 0.1 g | %Inh 15min. [1]: 14.9% and 2.5% and -5.6% and 8.0% and -7.4% | %Inh 30min. [1]: 11.1% and 12.8% and 4.1% and 11.4% and -3.2% | %Inh 60min. [1]: 11.1% and 3.0% and 0.8% and 7.4% and -0.7% | %Inh 120 min. [1]: -7.4% and 2.5% and 4.1% and 4.7% and -2.5% | Tactile Pressure (g) Post-treatment 15min. (0.0032 mg/rat ITH): 48.4 g and 47.2 g and 55.3 g and 30.4 g and 23.5 g and 48.7 g and 43.0 g and 36.2 g and 32.4 g and 33.8 g and 21.4 g and 31.9 g and 37.7 g and 42.5 g (2×) and 34.5 g and 30.5 g and 40.7 g and 60.0 g and 40.6 g | Tactile Pressure (g) Post-treatment 30min. (0.0032 mg/rat ITH): 36.4 g and 34.8 g and 44.1 g and 39.3 g and 34.1 g and 44.0 g and 38.1 g and 36.5 g and 36.8 g and 28.8 g and 30.3 g and 33.2 g and 34.5 g and 40.1 g and 37.2 g and 26.8 g and 27.7 g and 44.2 g and 54.3 g and 50.8 g | Tactile Pressure (g) Post-treatment 60min. (0.0032 mg/rat ITH): 33.6 g and 35.6 g and 35.5 g and 36.7 g and 29.0 g and 28.5 g and 40.6 g and 31.8 g and 16.1 g and 16.5 g and 21.8 g and 16.6 g and 24.3 g and 26.8 g and 21.3 g and 21.1 g and 31.3 g and 41.3 g and 32.5 g and 49.5 g | Tactile Pressure (g) Post-treatment 120 min. (0.0032 mg/rat ITH): 29.3 g and 21.6 g (2×) and 20.4 g and 19.2 g and 22.9 g and 22.1 g and 21.4 g and 14.5 g and 21.5 g and 17.6 g and 18.8 g and 16.2 g and 22.6 g and 24.7 g and 18.6 g and 31.1 g and 28.6 g and 27.9 g and 28.7 g | Tactile Pressure (g) Post-treatment 15min. Ave. [4]: 45.3 g and 37.9 g and 29.9 g and 36.3 g and 46.0 g | Tactile Pressure (g) Post-treatment 30min. Ave. [4]: 38.7 g and 38.2 g and 32.3 g and 34.7 g and 44.3 g | Tactile Pressure (g) Post-treatment 60min. Ave. [4]: 35.4 g and 32.5 g and 17.8 g and 23.4 g and 38.7 g | Tactile Pressure (g) Post-treatment 120 min. Ave. [4]: 22.6 g and 22.0 g and 18.1 g and 20.5 g and 29.1 g | Tactile Pressure (g) Post-treatment 15min. Mean (0.0032 mg/rat ITH): 39.1* g | Tactile Pressure (g) Post-treatment 30min. Mean (0.0032 mg/rat ITH): 37.6* g | Tactile Pressure (g) Post-treatment 60min. Mean (0.0032 mg/rat ITH): 29.6 g | Tactile Pressure (g) Post-treatment 120 min. Mean (0.0032 mg/rat ITH): 22.5 g | %Inh. 15 min. [5]: (55.9) % | %Inh. 30min. [5]: (51.4) % | %Inh. 60min. [5]: 27.1% | %Inh. 120 min. [5]: 5.5% | Δ Treatment 15min. [6]: 18.4 g | Δ Treatment 30min. [6]: 16.9 g | Δ Treatment 60min. [6]: 8.9 g | Δ Treatment 120 min. [6]: 1.8 g | %Inh 15min. [4]: 67.7% and 46.2% and 39.2% and 41.8% and 84.2% | %Inh 30min. [4]: 48.4% and 47.0% and 47.7% and 36.7% and 78.8% | %Inh 60min. [4]: 38.7% and 32.5% and -3.5% and 0.9% and 60.8% | %Inh 120 min. [4]: 1.2% and 5.8% and -2.5% and -8.2% and 29.9% | analgesic effect against post-operative pain (0.0032 mg/rat intrathecal, at 15 and 30 minute time points, compared with Δ blank values): demonstrated analgesic effect
